Test results reported in patent publication US20090247602A1, “COSMETIC USE OF CONJUGATED COMPOUNDS OF INDOLIC AUXINS” (EXSYMOL S.A.M., priority 2008, published 2009).

Tested on: sensory neurons from explants of rachidian ganglia of rat embryos
Test: Neurotrophic activity test: neurite outgrowth of dissociated sensory neurons
Assay type: cell-based
Conditions: 72 hours incubation; for % compared to the control: control = case 1
From the text: In other respects, and forming the basis of the present invention, it has been discovered for a very small panel of structures limited to the only conjugates of aspartic and glutamic acids, an unexpected property that is a said-neurotrophic activity. This activity is also found in a class of endogenous proteins, the neurotrophins, and in particular in the “NGF” (or “nerve growth factor”), an essential growth and survival factor in the formation and the maintenance of the cutaneous nervous network (M. Bothwell, J. Invest. Dermatol. Symposium Proceedings (1997), vol. 2, pp. 27-30). This remarkable activity, without any connection with antioxidant properties of these compounds, has been evidenced through an in vitro test that consists in measuring the neurites outgrowth kinetics from rat embryos sensory neurons selected for their physiology very similar to the one of human sensory neurons.
Test: Evidence of the Neurotrophic Activity of Aminoacid Conjugates of Indolic Auxins
The experimental study has been achieved on dissociated sensory neurons from explants of rachidian ganglia of rat embryos, and prepared according to the method described by Hall A. K. and al (J. Neurosci. (1997), vol. 17, pp. 2775-2784). After dissection and dissociation, sensory neurons are at once incubated in the following culture media (in hexaplicate), according to three situations: • case 1: culture medium without NGF, and without active ingredient according to the invention (control) • case 2: culture medium without NGF, with an active ingredient according to the invention • case 3: culture medium with NGF (positive reference)
After an incubation time of 72 hours, cells are washed and fixed. They are then labelled by an anti β-tubulin antibody reacting with cellular bodies and outgrowths of neurons. After a disclosure with an Alexa Fluor 488 secondary antibody, colour picture inputs were proceeded (using “In Cell Analyzer 1000™”). These digital data are then used for measuring a relative density of neurite length compared to the non treated control (case 1).
The neurotrophic effect of tested compounds is expressed by an increase (in μm) of this density of neurite outgrowth of neurons, synonymous with a strengthended development kinetic of neuronal network and a better viability (survival) of this latter.

[1] = 0.12 mg/ml, medium without NGF (case 2)
[2] = 5.10^−6 mg/ml, medium with NGF (case 3, positive reference)

O=C(O)C[C@H](NC(=O)Cc1c[nH]c2ccccc12)C(=O)O [IAA-Asp]
Average density of neurite outgrowth of sensory neurons [1]: 6820 μm
% compared to the control [1]: 108%

O=C(O)CC[C@H](NC(=O)Cc1c[nH]c2ccccc12)C(=O)O [IAA-Glu, indolyl-3-acetylglutamic acid]
Average density of neurite outgrowth of sensory neurons [1]: 7335 μm
% compared to the control [1]: 117%

O=C(O)C[C@H](NC(=O)CCCc1c[nH]c2ccccc12)C(=O)O [IBA-Asp, indolyl-3-butyrylaspartic acid]
Average density of neurite outgrowth of sensory neurons [1]: 8297 μm
% compared to the control [1]: 132%

O=C(O)CC[C@H](NC(=O)CCCc1c[nH]c2ccccc12)C(=O)O [IBA-Glu]
Average density of neurite outgrowth of sensory neurons [1]: 7195 μm
% compared to the control [1]: 114%

O=C(O)C[C@H](NC(=O)CCc1c[nH]c2ccccc12)C(=O)O [IPA-Asp]
Average density of neurite outgrowth of sensory neurons [1]: 6980 μm
% compared to the control [1]: 111%

O=C(O)CC[C@H](NC(=O)CCc1c[nH]c2ccccc12)C(=O)O [IPA-Glu]
Average density of neurite outgrowth of sensory neurons [1]: 8247 μm
% compared to the control [1]: 131%

NGF: nerve growth factor, a neurotrophin; positive reference (case 3)
Average density of neurite outgrowth of sensory neurons [2]: 11750 μm
% compared to the control [2]: 187%
